Source: patent US20040067991A1, “Tetrahydrobenzothiazole analogues as neuroprotective agents” (priority 2003, published 2004)
Counter-ions that a name gives are not always drawn. Like-named read-outs stand apart in the source and are kept apart here.

Assays:
PC12 cells = experiment: Protection of PC12 cells against camptothecin-induced cell death (BCECF AM fluorescence); format: cell-based
Procedure: The 2-amino-4,5,6,7-tetrahydrobenzothiazole hydrogen iodide, 1-(4-methylphenyl)-2-(4,5,6,7-tetrahydro-2-imino-3(2H)-benzothiazolyl)-ethanone hydrobromide, and analogues were tested for their ability to protect PC12 cells against the toxic agent, camptothecin. PC12 cells were cultured in RPMI1640 media containing 10% horse serum and 5% fetal calf serum (37° C., pH 7.4) until confluent. Thereafter, 2.2×10^4 cells per mL were added to each trough of a 96 well plate (approximately 6,270 cells per well 285 μL) and were left to grow for 12 h. The media then was removed and was replaced by media with and without the compounds to be tested, including precursor, PFTα, and numerous analogues (concentration 100-400 nM, prepared in DMSO to a final dilution of 0.4%, 8 wells per concentration). Following 6 h of incubation, camptothecin (40 μM) was added to 4 of each 8 wells, and the cells were incubated for a further 24 h. Cells then were gently washed twice with phosphate buffered saline (PBS: 0.1 M, 37° C., pH 7.4) and were incubated in PBS containing the live-cell indicator dye, 2′,7′-bis(2-carboxyethey)-5-6-carboxyfluorescein AM ester (BCECF AM: 5 μM) (Molecular Probes, CA), for 45 min in minimal light. This fluorescent dye was taken up and retained by live cells. Finally, the cells were washed twice in PBS and their fluorescence then was quantified (excitation: 490 nm, emission: 535 nm, Perkin Elmer HTS 7000).
PC12 cell survival was also assessed. One hundred percent cell survival was determined from cells incubated in the absence of both any compound and camptothecin. […] Compound-induced toxicity was assessed by comparing cells treated with compound at various concentrations in the absence of camptothecin with cells incubated in the absence of both compound and camptothecin. […] Compound-induced cellular protection was assessed by comparing cells incubated with camptothecin with cells incubated with camptothecin in the presence of compound, in a concentration-dependent manner.

rat hippocampal neurons = experiment: Neuronal survival assay in cultured hippocampal neurons treated with camptothecin or etoposide; format: cell-based; conditions: for neuroprotection of hippocampal neurons against camptothecin (in words): 100 nM, added 1 h before camptothecin 5 μM; for protection of primary hippocampal cells against death induced by camptothecin and etoposide (in words) / neurons killed: camptothecin 5 μM, etoposide 2.5 μM; for neurons killed: hippocampal neurons
Procedure: 2-amino-4,5,6,7-tetrahydrobenzothiazole hydrogen and 1-(4-methylphenyl)-2-(4,5,6,7-tetrahydro-2-imino-3(2H)-benzothiazolyl)-ethanone hydrobromide and their analogues were assessed for their ability to protect rat hippocampal cells in culture from camptothecin ([…]).
Dissociated hippocampal cell cultures were established from embryonic day 18 Sprague-Dawley rats (Harlan, Inc.) as described previously. […] 77:220-28. Cells were grown in polyethyleneimine-coated plastic dishes or 22 m^2 glass coverslips, and incubated in Neurobasal medium containing B27 supplements, 2 mM L-glutamine, 25 mg/ml gentamycin, 1 mM Hepes (Gibco BRL) and 0.001% gentamicin sulfate. All experiments were performed using 9-10 day-old cultures. Camptothecin and etoposide (Signia) were prepared as 500× stocks in DMSO. Neuron survival was quantified by established methods. […] Briefly, viable neurons in premarked fields (10× objective) were counted before experimental treatment and at specified time points thereafter. Neurons with intact neurites of uniform diameter and soma with a smooth round appearance were considered viable. In contrast neurons with fragmented neurites and vacuolated soma were considered non-viable.

[1] = 6 h preincubation with compound, camptothecin 40 μM for 24 h; read-out: PD50; concentration of compounds required to induce 50% protection (PC50) of PC12 cells from camptothecin-induced cell-death
[2] = compounds 100-400 nM, camptothecin 40 μM 24 h

| Molecule | EC50 (PC12 cells; [1]) [nM] | further results |
| --- | --- | --- |
| 1-(4-phenylphenyl)-2-(4,5,6,7-tertahydro-2-imino-3(2H)-benzothiazolyl)-ethanone hydrobromide [Compound 10] | 767 | – |
| 2-Imino-3-butyl-4,5,6,7-tetrahydro-3(2H)-benzothiazole hydrobromide [Compound 26] | 395 | – |
| 2-imino-3-(4′-cyanobenzyl)-4,5,6,7-tetrahydro-3(2H)-benzothiazole hydrobromide [Compound 21] | 418 | – |
| 2-imino-3-(4′-fluorobenzyl)-4,5,6,7-tetrahydro-3(2H)-benzothiazole hydrobromide [Compound 16] | 154 | – |
| 2-imino-3-(naphthalenylmethyl-4,5,6,7-tetrahydro-3(2H)-benzothiazole hydrobromide [Compound 24] | 318 | – |
| N=c1sc2c(n1CC(=O)c1ccc(F)cc1)CCCC2 [Compound 4, 1-(4-fluorophenyl)-2-(4,5,6,7-tertahydro-2-imino-3 (2H)-benzothiazolyl)-ethanone hydrobromide] | 379 | – |
| Br.COc1ccc(C(=O)Cn2c3c(sc2=N)CCCC3)cc1 [Compound 6, 1-(4-methoxylphenyl)-2-(4,5,6,7-tertahydro-2-imino-3(2H)-benzothiazolyl)-ethanone hydrobromide] | 182 | protection of PC12 cells against camptothecin-induced death (in words) (PC12 cells; [2]): highly potent |
| Br.COc1ccccc1C(=O)Cn1c2c(sc1=N)CCCC2 [Compound 7, 1-(2-methoxylphenyl)-2-(4,5,6,7-tertahydro-2-imino-3(2H)-benzothiazolyl)-ethanone hydrobromide] | 348 | protection of PC12 cells against camptothecin-induced death (in words) (PC12 cells; [2]): highly potent |
| Br.COc1cccc(C(=O)Cn2c3c(sc2=N)CCCC3)c1 [Compound 8, 1-(3-methoxylphenyl)-2-(4,5,6,7-tertahydro-2-imino-3(2H)-benzothiazolyl)-ethanone hydrobromide] | 418 | neuroprotection of hippocampal neurons against camptothecin (in words) (rat hippocampal neurons): significantly protected; protection of primary hippocampal cells against death induced by camptothecin and etoposide (in words) (rat hippocampal neurons; 24 h): highly potency |
| Br.N=c1sc2c(n1CC(=O)c1ccc(Cl)cc1)CCCC2 [Compound 9, 1-(4-chlorophenyl)-2-(4,5,6,7-tertahydro-2-imino-3(2H)-benzothiazolyl)ethanone hydrobromide] | 187 | neuroprotection of hippocampal neurons against camptothecin (in words) (rat hippocampal neurons): significantly protected; protection of primary hippocampal cells against death induced by camptothecin and etoposide (in words) (rat hippocampal neurons; 24 h): highly potency; protection of PC12 cells against camptothecin-induced death (in words) (PC12 cells; [2]): highly potent |
| N=c1sc2c(n1CC(=O)c1ccc([N+](=O)[O-])cc1)CCCC2 [Compound 11, 1-(4-nitrophenyl)-2-(4,5,6,7-tertahydro-2-imino-3(2H)-benzothiazolyl)ethanone hydrobromide] | 410 | – |
| Br.N=c1sc2c(n1CC1CC1)CCCC2 [Compound 15, 3-(cyclopropylmethyl)-4,5,6,7-tetrahydro-2(3H)-benzothiazolimine Hydrobromide] | 728 | neuroprotection of hippocampal neurons against camptothecin (in words) (rat hippocampal neurons): could not protect neurons effectively; neuroprotection of hippocampal neurons against etoposide (in words) (rat hippocampal neurons; added 1 h before etoposide 2.5 μM): activity comparable to PFTα; protection of primary hippocampal cells against death induced by camptothecin and etoposide (in words) (rat hippocampal neurons; 24 h): highly potency; neuronal survival (rat hippocampal neurons; pretreated with 100 nM of analogue, then camptothecin (5 μM), 24 h): 23% |
| N=c1sc2c(n1Cc1ccc(F)cc1F)CCCC2 [Compound 17, 2-imino-3-(2′,4′-difluorobenzyl)-4,5,6,7-tetrahydro-3(2H)-benzothiazole hydrobromide] | 93 | – |
| Cc1ccc(Cn2c3c(sc2=N)CCCC3)cc1 [Compound 18, 2-imino-3-(4′-methylbenzyl)-4,5,6,7-tetrahydro-3(2H)-benzothiazole hydrobromide] | 1000 | – |
| CC(C)(C)c1ccc(Cn2c3c(sc2=N)CCCC3)cc1 [Compound 19, 2-imino-3-(4′-tert-butylbenzyl)-4,5,6,7-tetrahydro-3(2H)-benzothiazole hydrobromide] | 315 | – |
| N=c1sc2c(n1Cc1ccc([N+](=O)[O-])cc1)CCCC2 [Compound 20, 2-imino-3-(4′-nitrobenzyl)-4,5,6,7-tetrahydro-3(2H)-benzothiazole hydrobromide] | 144 | – |
| N=c1sc2c(n1Cc1ccc(C(F)(F)F)cc1)CCCC2 [Compound 22, 2-imino-3-(4′-trifluorobenzyl)-4,5,6,7-tetrahydro-3(2H)-benzothiazole hydrobromide] | 327 | – |
| N=c1sc2c(n1CCc1ccccc1)CCCC2 [Compound 25, 2-imino-3-phenylethyl-4,5,6,7-tetrahydro-3(2H)-benzothiazole] | 1100 | – |
| Cc1ccc(C(=O)Cn2c3c(oc2=N)CCCC3)cc1 [Compound 27, 1-(4-methylphenyl)-2-(4,5,6,7-tetrahydro-2-imino-3(2H)-benzoxazolyl)ethanone hydrobromide] | 69 | – |
| CCC(=O)Cn1c2c(oc1=N)CCCC2 [Compound 28, 1-(4,5,6,7-tertahydro-2-imino-3(2H)-benzoxazolyl)-2-butanone hydrobromide] | 143 | – |
| Cc1ccc(-c2cn3c4c(sc3n2)CCCC4)cc1 [Compound 29, 2-(4′-methylphenyl)-5,6,7,8-tetrahydroimidazo[2,1-b]benzothiazole] | 214 | – |
| N=c1sc2c(n1Cc1cccc(Cn3c4c(sc3=N)CCCC4)n1)CCCC2 [Compound 30, 2,6-Bis[(4,5,6,7-tetrahydro-2-imino-3(2H)-benzothiazolyl)methyl]pyridine Dihydrobromide] | 133 | – |
| CC[C@@]1(O)C(=O)OCc2c1cc1n(c2=O)Cc2cc3ccccc3nc2-1 [camptothecin, reference compound] | – | neurons killed (rat hippocampal neurons): approximately 85% |
| COc1cc([C@@H]2c3cc4c(cc3[C@@H](O[C@@H]3O[C@@H]5CO[C@@H](C)O[C@H]5[C@H](O)[C@H]3O)[C@H]3COC(=O)[C@H]23)OCO4)cc(OC)c1O [etoposide, reference compound] | – | neurons killed (rat hippocampal neurons): approximately 85% |
| I.Nc1nc2c(s1)CCCC2 [precursor, 2-amino-4,5,6,7-tetrahydrobenzothiazole hydrogen iodide] | – | toxicity when administered alone to hippocampal cells (rat hippocampal neurons; concentrations up to 400 nM): neither PFTα (5) nor its precursor were toxic; protection of PC12 cells against camptothecin-induced death (in words) (PC12 cells; [2]): low activity; EC50 (PC12 cells; read-out: PD50; concentration of compounds required to induce 50% protection (PC50) of PC12 cells from camptothecin-induced cell-death; 6 h preincubation with compound, camptothecin 40 μM for 24 h): 5750 nM |
| ethyl 2-(4,5,6,7-tertahydro-2-imino-3(2H)-benzothiazolyl)-acetate hydrobromide [Compound 2] | 595 | – |
